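Cells were grown in 96-well plates and exposed to each compound for 48 hours at five concentrations; endpoints were interpolated linearly between bracketing concentrations, or set to the highest concentration if not reached. At the GI50, growth is halved.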 Active and inactive are the calls of the source. Rule as the data show it: active = GI50 up to about 1.1 µM and inactive = higher.
Tests used:
Test in all cases: inhibition of tumour cell growth, NCI panel, 48 h
HCT-116 = system: HCT-116
T47D = system: T47D
U-251 = system: U-251
M14 = system: M14
MDA-N = system: MDA-N
HT-29 = system: HT-29
NCI-H460 = system: NCI-H460
K562 = system: K562
TK-10 = system: TK-10
OVCAR-3 = system: OVCAR-3
PC-3 = system: PC-3
NCI-H226 = system: NCI-H226
SW-620 = system: SW-620
A498 = system: A498
NCI-H522 = system: NCI-H522
SK-MEL-28 = system: SK-MEL-28
SN12C = system: SN12C
OVCAR-5 = system: OVCAR-5
RXF 393 = system: RXF 393

Structure (SMILES)	GI50 (HCT-116)	GI50 (T47D)	GI50 (U-251)	GI50 (M14)	GI50 (MDA-N)	GI50 (HT-29)	GI50 (NCI-H460)	GI50 (K562)	GI50 (TK-10)	GI50 (OVCAR-3)	GI50 (PC-3)	GI50 (NCI-H226)	GI50 (SW-620)	GI50 (A498)	GI50 (NCI-H522)	GI50 (SK-MEL-28)	GI50 (SN12C)	GI50 (OVCAR-5)	GI50 (RXF 393)
CCOC(=O)c1c(C)noc1/N=N/N(CCO)CCO	28.7 µM (inactive)	10.8 µM (inactive)	28.4 µM (inactive)	49.5 µM (inactive)	27.7 µM (inactive)	33.4 µM (inactive)	27.9 µM (inactive)	29 µM (inactive)	56.1 µM (inactive)	19.7 µM (inactive)	31.8 µM (inactive)	23.6 µM (inactive)	28.3 µM (inactive)	21.7 µM (inactive)	24.2 µM (inactive)	49.1 µM (inactive)	37.5 µM (inactive)	> 100 µM (inactive)	15.1 µM (inactive)
COc1ccc(-c2[nH]c3c4c(nc5c(c24)C(=O)CC(C)(C)C5)CC(C)(C)C3)cc1	70 µM (inactive)	44.5 µM (inactive)	48.9 µM (inactive)	> 100 µM (inactive)	47.4 µM (inactive)	43.9 µM (inactive)	72.3 µM (inactive)	28.4 µM (inactive)	> 100 µM (inactive)	47.3 µM (inactive)	24.3 µM (inactive)	68.7 µM (inactive)	> 100 µM (inactive)	28.6 µM (inactive)	54.5 µM (inactive)	> 100 µM (inactive)	38.9 µM (inactive)	> 100 µM (inactive)	73.5 µM (inactive)
N=C(Cc1ccccc1)NCC(=O)O	> 100 µM (inactive)	> 100 µM (inactive)	> 100 µM (inactive)	> 100 µM (inactive)	> 100 µM (inactive)	> 100 µM (inactive)	> 100 µM (inactive)	> 100 µM (inactive)	> 100 µM (inactive)	> 100 µM (inactive)	> 100 µM (inactive)	> 100 µM (inactive)	> 100 µM (inactive)	> 100 µM (inactive)	> 100 µM (inactive)	> 100 µM (inactive)	> 100 µM (inactive)	> 100 µM (inactive)	> 100 µM (inactive)
CCNC(=O)OCC1C2=C(C(=O)C(C)=C(N)C2=O)N2CC3C(N3C)C12OC (configuration not stated)	14.6 µM (inactive)	55.2 µM (inactive)	23.8 µM (inactive)	9.86 µM (inactive)	> 88.5 µM (inactive)	18.5 µM (inactive)	0.18 µM (active)	25.5 µM (inactive)	60.1 µM (inactive)	21.9 µM (inactive)	24.5 µM (inactive)	> 87.7 µM (inactive)	9.93 µM (inactive)	20.9 µM (inactive)	11.7 µM (inactive)	> 81.7 µM (inactive)	13.5 µM (inactive)	> 72.6 µM (inactive)	32.5 µM (inactive)
C=C1CC(c2ccc(OCCCN3C(=O)c4ccccc4C3=O)cc2)OC1=O (configuration not stated)	1.8 µM (inactive)	2.92 µM (inactive)	4 µM (inactive)	2.55 µM (inactive)	2.79 µM (inactive)	2.53 µM (inactive)	2.07 µM (inactive)	1.52 µM (inactive)	4.94 µM (inactive)	1.86 µM (inactive)	2.92 µM (inactive)	1.46 µM (inactive)	1.48 µM (inactive)	1.37 µM (inactive)	0.653 µM (active)	1.81 µM (inactive)	3.31 µM (inactive)	11.4 µM (inactive)	1.99 µM (inactive)
COC(=O)CCSC1=CC(=O)c2nc3ccccc3c3ccnc1c23	20.1 µM (inactive)	18.7 µM (inactive)	32.4 µM (inactive)	21.9 µM (inactive)	28 µM (inactive)	18 µM (inactive)	16.1 µM (inactive)	8.47 µM (inactive)	14.2 µM (inactive)	2.68 µM (inactive)	15.4 µM (inactive)	47.1 µM (inactive)	22.2 µM (inactive)	> 84.7 µM (inactive)	1.39 µM (inactive)	21.9 µM (inactive)	19.7 µM (inactive)	42.7 µM (inactive)	20.3 µM (inactive)
CNC(=O)OCc1c2ccncc2c(C)c2c1[nH]c1ccccc12	0.184 µM (active)	0.331 µM (active)	0.223 µM (active)	1.18 µM (inactive)	0.501 µM (active)	0.215 µM (active)	0.167 µM (active)	0.275 µM (active)	0.237 µM (active)	0.28 µM (active)	0.723 µM (active)	0.258 µM (active)	0.136 µM (active)	0.202 µM (active)	0.0646 µM (active)	0.818 µM (active)	0.275 µM (active)	0.296 µM (active)	< 0.0385 µM (active)
CCCCN1C(=O)C[C@H]2[C@@H]3CCc4cc(OCCN5CCCC5)ccc4[C@H]3CC[C@]2(C)C1=O	3.64 µM (inactive)	12.3 µM (inactive)	5.51 µM (inactive)	2.03 µM (inactive)	4.38 µM (inactive)	0.979 µM (active)	5.79 µM (inactive)	1.74 µM (inactive)	14.6 µM (inactive)	10.6 µM (inactive)	7.48 µM (inactive)	6.53 µM (inactive)	11.5 µM (inactive)	14.7 µM (inactive)	8.41 µM (inactive)	3.45 µM (inactive)	14.2 µM (inactive)	11.4 µM (inactive)	1.89 µM (inactive)
